Patent US7989420B2, “Smooth muscle relaxation” (New York Medical College, priority 2006, dated 2011)

Key:
[1] = test system: bovine pulmonary arteries (BPA); experiment: Protoporphyrin IX-associated tissue fluorescence in organ cultured BPA rings; type: cell-based
Description: (§1) Organoid Culture Isolated Arteries for Heme Modulation. Intralobar BPA were isolated from slaughterhouse-derived bovine calf lungs, cleaned from surrounding tissue, and placed in 37° C. Dulbecco's Modified Eagle Medium (DMEM) containing 10% fetal bovine serum, penicillin, streptomycin, and fungizone (complete media). The arteries were isolated and cut into rings ˜2 mm in diameter and width, and the endothelium was removed by gentle rubbing of the lumen. Various compounds (i.e. ALA, FeSO4(Fe), deferoxamine) were added as described in the Results to various experimental groups, and these arteries were organ cultured overnight for 24 h in complete media in a 37° C.-5% CO2 incubator. Preliminary experiments on the time course for detection protoporphyrin IX accumulation and the effects of organ culture with doses of ALA in the 10-100 μM concentration range on contractile function, and minimizing the duration of organ culture were considerations that contributed to selecting the 24 h culture period used in this study.
Determination Changes in Protoporphyrin 1× and Heme Levels. Methods for the detection of protoporphyrin IX tissue fluorescence developed for the detection in cancerous cells with tissue depths of up to several millimeters (27) were adapted for detecting changes in the endogenous levels of protoporphyrin IX in BPA rings which were organ cultured with ALA. When excited with light in the regions of 505 and 540 nm, protoporphyrin IX has an emission in the region of 635 nm. […] Increases in protoporphyrin IX were measured using an excitation wavelength of 528±20 nm and emission of 620±40 nm in intact vessels. Ring segments of approximately equal size (˜4 mm in diameter and length) were centered on the bottom of the ˜6 mm diameter wells of a 96 well microplate with 200 μl of Krebs containing with 10 mM Hepes buffer (pH 7.4), and the fluorescence was measured from the bottom surface of the plate using BIOTEK fluorescent microplate reader (Model FLx800i). Data are reported in the arbitrary fluorescence units measured (AU), after subtraction of the low levels of background fluorescence observed in the absence of BPA.

[2] = test system: bovine pulmonary arteries (BPA); experiment: Isometric force generation to serotonin (5-HT) in organ cultured BPA rings; type: cell-based
Description: as §1
Studies on the Regulation of Contractile Function. Following the overnight incubation, arterial rings were mounted on wire hooks attached to Grass (FT03) force displacement transducers for measurement of changes in isometric force. Tension was adjusted to 5 g, which is the optimal passive force for maximal contraction. Changes in force were recorded on a Grass polygraph (model 7), while vessels were incubated in 10-ml baths (Metro Scientific), which were individually thermostated (37° C.) in Krebs buffer gassed with 21% O2-5% CO2 (balance N2) in the absence of compounds used to modulate BPA protoporphyrin IX levels. Arteries were incubated for 1 h during which passive tension was adjusted to maintain 5 grams. The vessels were then depolarized with Krebs containing 123 mM KCl (High K^+) in place of NaCl, followed by re-equilibration with Krebs, prior to exposure to the experimental protocols. Following the wash with Krebs buffer after the High K^+ treatment, and a 30 min equilibration, BPA were then contracted with serotonin (5-HT) in a dose dependent manner to determine the response to this contractile agent. In some experiments, BPA were pretreated with the sGC inhibitor, 10 μM ODQ, for 15 min before contraction with serotonin. The effects of ODQ on relaxation to NO was determined by first contracting organ cultured control and ODQ-treated BPA with 1 μM 5-HT (after the initial exposure to increasing concentrations of 5-HT and a 30 min equilibration in Krebs).

[3] = test system: bovine pulmonary arteries (BPA); experiment: Heme content of BPA homogenates (QuantiChrom heme assay); type: cell-based; conditions: organ culture with 100 μM ALA and/or 100 μM Fe
Description: Heme was quantified in BPA homogenates using a QuantiChrom heme assay kit purchased from BioAssay Systems, and changes in absorbance were measured in a BIOTEK scanning microplate spectrophotometer. Briefly, segments were homogenized in 20 mM MOPS+sucrose buffer and diluted to approximately 5 mg protein/ml. Homogenates were centrifuged at 2000×g for 5 min, and 50 μl of supernatant obtained were assayed for their heme content based on the manufacture's instructions, employing measurements of changes in absorbance at 400 nm. The protein content of the supernatant was measured with Biorad protein assay kit, and tissue heme levels were reported as nanomoles/mg protein.

sGC [4] = target: T1, sGC (Bos taurus, UniProt P16068); experiment: sGC activity in BPA homogenates (cGMP by ELISA); type: biochemical, bovine; design: Guanylate cyclase activity of homogenates of BPA was measured by enzyme immunoassay; from tissue; host or cells: BPA (pulmonary artery rings, organ cultured) homogenate; conditions: organ culture with 100 μM ALA and/or 100 μM Fe
T1 sequence (P16068 1-619): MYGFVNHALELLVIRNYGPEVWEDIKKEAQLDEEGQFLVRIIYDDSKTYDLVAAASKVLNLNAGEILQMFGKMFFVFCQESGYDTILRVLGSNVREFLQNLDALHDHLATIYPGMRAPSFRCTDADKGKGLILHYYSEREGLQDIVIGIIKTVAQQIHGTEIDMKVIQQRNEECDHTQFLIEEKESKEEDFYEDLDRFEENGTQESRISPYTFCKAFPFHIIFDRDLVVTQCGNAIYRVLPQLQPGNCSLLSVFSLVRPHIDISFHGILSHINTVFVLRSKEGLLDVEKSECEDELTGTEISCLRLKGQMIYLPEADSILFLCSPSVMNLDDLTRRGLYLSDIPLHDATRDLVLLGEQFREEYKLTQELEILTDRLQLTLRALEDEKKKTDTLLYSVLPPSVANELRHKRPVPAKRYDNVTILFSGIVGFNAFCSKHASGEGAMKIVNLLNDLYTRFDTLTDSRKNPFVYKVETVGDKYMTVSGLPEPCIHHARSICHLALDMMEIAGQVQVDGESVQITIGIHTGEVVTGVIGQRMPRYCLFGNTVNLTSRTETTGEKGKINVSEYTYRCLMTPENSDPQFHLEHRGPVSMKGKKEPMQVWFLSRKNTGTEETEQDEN
T1 sequence (P19687 1-691 partner): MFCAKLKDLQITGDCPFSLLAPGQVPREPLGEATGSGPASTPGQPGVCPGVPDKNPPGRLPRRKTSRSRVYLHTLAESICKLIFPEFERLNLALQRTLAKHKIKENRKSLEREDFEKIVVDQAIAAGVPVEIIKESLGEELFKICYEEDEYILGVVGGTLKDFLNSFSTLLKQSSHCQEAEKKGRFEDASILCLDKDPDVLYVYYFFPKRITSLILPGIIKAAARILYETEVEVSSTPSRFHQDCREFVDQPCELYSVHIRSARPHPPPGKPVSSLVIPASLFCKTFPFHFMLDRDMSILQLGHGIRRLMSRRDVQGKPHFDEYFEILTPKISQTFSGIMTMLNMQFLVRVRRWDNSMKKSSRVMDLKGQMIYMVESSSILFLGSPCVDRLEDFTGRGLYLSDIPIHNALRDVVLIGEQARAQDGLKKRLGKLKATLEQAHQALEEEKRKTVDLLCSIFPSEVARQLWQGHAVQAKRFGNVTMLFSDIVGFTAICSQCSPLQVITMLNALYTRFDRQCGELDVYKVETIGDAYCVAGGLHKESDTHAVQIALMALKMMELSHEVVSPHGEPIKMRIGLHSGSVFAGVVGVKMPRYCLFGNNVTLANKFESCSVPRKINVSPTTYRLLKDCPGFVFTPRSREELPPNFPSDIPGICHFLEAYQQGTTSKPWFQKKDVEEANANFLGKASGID
Description: Guanylate cyclase activity of homogenates of BPA was measured by enzyme immunoassay of the amounts of cGMP generated. Briefly, BPA were pulverized in liquid nitrogen and homogenized in MOPS buffer 1:3 wt to buffer ratio at 5° C. Reaction mixture (0.2 ml final volume) contained 20 mM MOPS-KOH (pH 7.4), 0.1 mM GTP, 2 mM MgCl2, 0.3 mM of the phosphodiesterase inhibitor 3-Isobutyl-1-methylxanthine, a GTP-regenerating system consisting of 10 mM phosphocreatine and 150 U/ml creatine phosphokinase, and 0.1 ml of homogenate (11, 15), and test agents, as indicated. Assays of sGC activity were initiated by the addition of BPA homogenate. Incubations were conducted for 10 min at 37° C., and they were terminated by the addition of 0.1 ml of preheated 12 mM EDTA. This was followed by boiling the assay mixtures for 10 min and a subsequent addition of 5% trichloroacetic acid. The precipitate was removed by centrifugation and the supernatant was washed three times with water-saturated diethyl ether. Residual ether was removed by incubation at 70° C. for 5 minutes, prior to measurement of cGMP by ELISA (Cayman), as described in the manual supplied by manufacturer of the ELISA kit.

[5] = test system: VASP serine-239 phosphorylation (cGMP-dependent protein kinase activation); experiment: Western blot of VASP serine-239 phosphorylation in BPA; type: cell-based, bovine
Description: Rings from studies on contractile function were snap-frozen in liquid nitrogen, crushed and homogenized in lysis buffer (50 mM Tris-HCl, pH 8.0, 150 mM NaCl, 1 mM EDTA, 1% Triton X-100, 0.5% sodium deoxycholate, 0.1% sodium dodecyl sulfate, 1% of a protease inhibitor cocktail (Sigma) and 1% of a phosphatase inhibitor cocktail (Sigma). The protease inhibitor cocktail included 4-(2-aminoethyl)benzenesulfonyl floride hydrocholride, aprotinin, bestatin hydrochloride, N-(trans-epoxsuccinyl)-L-leucine-4-guanidinobutylamide, leupeptine hemisulfate, pepstatin and the phosphatase inhibitor cocktail included sodium orthovandate, sodium molybdate, sodium tartarate, and imidazole. Protein concentration was determined and 30 μg of protein samples were prepared in electrophoresis sample buffer containing 3% SDS and 3% β-mercaptoethanol and were separated using a 12% gel SDS-PAGE electrophoresis. Membranes were blocked for 1 h in TBST-5% milk and incubated overnight with phospho-VASP antibodies (diluted 1:1000). Membranes were exposed to a secondary horse radish peroxidase linked antibody and visualized with an ECL kit (Amersham). The membranes were subsequently exposed to X-OMAT autoradiography paper (Kodak). Membranes were stripped with TRIS-HCl buffer with 100 mM β-mercaptoethanol at 50° C. for 30 min. Membranes were subsequently washed, blocked and detected for total VASP. Each measurement of phosphorylated VASP was normalized to the total level of VASP, and data are reported as the percent of the levels of phosphorylated VASP seen in control arteries not exposed to agents which modulate the activity of sGC. Expression of sGC was detected with β-sGC subunit antibodies (diluted 1:2000), employing anti-rabbit secondary antibodies, and a protocol where membranes were blocked for 2 h. After analyzing for sGC protein expression, blots were stripped and re-probed for the detection of α-actin protein levels, which were used for normalization of data for statistical analysis based on protein loading.

bovine airways = experiment: Superoxide detection by lucigenin chemiluminescence in bovine airways; type: cell-based; conditions: 10 μM PDBu for 30 minutes
Description: Bovine bronchi were isolated from the same lungs used for pulmonary arteries, and studied for changes in protoporphyrin IX fluorescence and force under the same conditions as bovine pulmonary arteries described above. Superoxide was detected by the chemiluminescence produced by 5 μM lucigenin, which was detected by photon counting in a scintillation counter.

sGC [6] = target: T1, sGC; conditions: reference (34), cited from earlier work
[7] = target: T2, sGC purified from bovine lungs (Bos taurus, UniProt P16068); conditions: reference (34); cited from earlier work
T2 construct: host or cells: bovine lung
T2 sequence (P16068 1-619): T1 sequence (P16068 1-619)
T2 sequence (P19687 1-691 partner): T1 sequence (P19687 1-691 partner)

[8] = 100 μM Fe in the presence of 100 μM ALA
[9] = organ culture with 100 μM Fe alone
[10] = 10 μM ODQ on BPA organ cultured with 100 μM ALA

Q: What does the source list for `O=S(=O)([O-])[O-].[Fe+2]` [Fe, FeSO4]?
A: protoporphyrin IX fluorescence [1, 8]: reversed the increase in protoporphyrin IX fluorescence; background fluorescence of BPA [1, 9]: did not alter the background fluorescence; force generation by 5-HT [2, 8]: reversed the force attenuating effects; force generation by 5-HT [2, 9]: did not alter force generation; BPA heme levels [3]: did not reach statistical significance; BPA homogenate sGC activity (sGC [4]): did not alter sGC activity

Q: What does the source list for `O=c1onc2cnc3ccccc3n12` [ODQ, 1H-[1,2,4]oxadiazolo[4,3-α]quinoxalin-1-one]?
A: force generation to 5-HT ([2]; 10 μM ODQ alone): did not alter; decrease in contraction to 5-HT caused by ALA [2, 10]: did not alter; relaxation to the NO donor ([2]; pretreatment with 10 μM ODQ, 10 μM spermine-NONOate): markedly attenuated relaxation; VASP serine-239 phosphorylation ([5]; 10 μM ODQ alone, appeared to decrease): did not reach statistical significance; increase in VASP serine-239 phosphorylation caused by ALA [5, 10]: did not significantly alter the increase in serine-239 VASP phosphorylation; increase in VASP serine-239 phosphorylation caused by the NO donor ([5]; 10 μM ODQ with 10 μM spermine-NONOate): attenuate the increase caused by the NO donor

Q: Which “superoxide detected by 5 μM lucigenin chemiluminescence” value (bovine airways) does the source give for `CCCC(=O)O[C@@H]1[C@@H](C)[C@@]2(O)[C@@H](C=C(CO)C[C@]3(O)C(=O)C(C)=C[C@@H]23)[C@@H]2C(C)(C)[C@]12OC(=O)CCC` [PDBu] here?
A: Its value is “causes an increase in superoxide”.

Q: For `C=CC1=C(C)c2cc3[n-]c(cc4[n-]c(cc5nc(cc1n2)C(C)=C5C=C)c(C)c4CCC(=O)O)c(CCC(=O)O)c3C.[Fe+2]` [heme], which Kd (sGC [6]; read-out: binding affinity for the binding site on sGC) is on record?
A: The Kd was ~350 nM.

Q: What about the “effect on activation of sGC by protoporphyrin IX” value [7] of the same compound?
A: Its value is “competitive inhibitor”.

Q: Which “binding affinity for the binding site on sGC” value (sGC [6]) does the source give for `C=CC1=C(C)c2cc3[nH]c(cc4nc(cc5[nH]c(cc1n2)c(C)c5CCC(=O)O)C(CCC(=O)O)=C4C)c(C)c3C=C` [protoporphyrin IX] here?
A: Its value is “low nanomolar concentration range”.

Q: Which “relaxation of organ cultured BPA” value ([2]; 10 μM spermine-NONOate) does the source give for `NCCCNCCCCN(CCCN)/[N+]([O-])=N/O` [spermine-NONOate] here?
A: The value was “relaxed”.

Q: What about the “VASP serine-239 phosphorylation” value ([5]; 10 μM spermine-NONOate) of the same compound?
A: Its value is “increased VASP phosphorylation”.
